Experimental data taken from patent US6569686B2, “Measurement of solubility-pH profiles” (Pion, Inc., priority 2000, dated 2003).
In brackets after ≈: the same amount, converted by molar mass. Several values for one entry are separate records, joined by “and”; a condition that tells them apart may be missing. Identical values can stand only once. Like-named read-outs stand apart in the source and are kept apart here. Marks after values point to notes of the source that are not given here.

Key:
[1] = true pKa of the compounds (commercial pKa instruments / literature); format: physicochemical; conditions: pION unpublished data (footnote f)
From the text: For ionizable molecules in dilute solutions (where salt precipitation may be ignored), when the log (logarithm) of the measured solubility is plotted vs. pH, the curve is bilinear, with one segment having a zero slope and the other segment having a unit slope (positive for acids and negative for bases). […]. In a simple aqueous equilibrium system, the pH where the asymptotes of the horizontal and diagonal segments intersect is equal to the pKa of the solute. Under such ideal circumstances, it is possible to determine the pKa and the intrinsic aqueous solubility, So, of the compound from the crossing of the segments [Z. T. Chowhan, J. Pharm. Sci. 1978, 67, 1257-1260; W. H. Streng, H. G. H. Tan, Int. J. Pharm. 1985, 25, 135-145]. Such pKa values can be directly measured by commercially-available devices [C. D. Bevan, A. P. Hill, D. P. Reynolds, Patent Cooperation Treaty, WO 99/13328, Mar. 18, 1999; Sirius Analytical Instruments Ltd., UK].
(2) Also, a novel and simple computational method is developed to extract the aqueous intrinsic solubilities of drug molecules from data altered by DMSO-drug binding, or drug-drug aggregation reactions, or drug reactions with non-ionizable excipients, using the difference between the apparent pKa measured by the analytical device and the true pKa measured by analytical devices available commercially (e.g., from Sirius Analytical Instruments Ltd., Forest Row, E. Sussex, UK).
We discovered that if one determines the pKa^APP (in the presence of the DMSO effect) in the solubility assay, and subtracts from it the true pKa (determined using commercial instruments such as those from Sirius, UK), the difference, when subtracted from the logarithm of the apparent (DMSO-distorted) solubility, So^APP, yields the true aqueous solubility constant:
Since the pKas of the studied compounds are known (Table 2), it was possible to calculate the pKa shifts (Δ values in Table 1).

[2] = solubility-pH by aqueous dilution method, 96-well UV; format: physicochemical; conditions: kinetic from dmso stock
[3] = true aqueous intrinsic solubility corrected from pKa shifts; format: physicochemical; conditions: for solubility: aqueous buffer, kinetic from dmso stock; for log So (corrected): log of μg/mL, horizontal asymptote of dashed curve in FIG. 8
[4] = apparent pKa from fitted log S vs. pH curve; format: physicochemical; conditions: saturated solutions; for pKa shift Δ (apparent pKa minus true pKa) / pKa shift Δ: DMSO-containing saturated solutions (FIG. 8); for pKa shift Δ (apparent pKa minus true pKa): read-out: pKa shift Δ = pKa^APP − pKa; for pKa shift Δ: pKa shift Δ = pKa^APP − pKa, heading: pKa shift Δ = pKa^APP − pKa
[5] = no DMSO, cited from earlier work; for Shake-Flask So: literature / private correspondence
[6] = physchem
[7] = pH 3
[8] = true pKa; literature sources (footnotes a, b, h); cited from earlier work
[9] = literature (footnotes a, b); cited from earlier work
[10] = intrinsic solubility by pSOL Model 3 acid-base titrator; format: physicochemical; conditions: pION unpublished data (footnote f)
Method: Solubility determinations are illustrated with 15 sparingly-soluble generic, mostly-ionizable drugs (FIG. 1), covering about three orders of magnitude in solubilities, with the lowest value being about 0.1 μg/mL (terfenadine at high pH). The ionizable bases include amiloride, amitriptyline, chlorpromazine, miconazole, nortriptyline, phenazopyridine, propranolol, and terfenadine. […] Piroxicam was picked as an example of an ampholyte, and griseofulvin as an example of a non-ionizable molecule. The results of the solubility measurements were compared to literature equilibrium solubility-pH values from reliable sources, and to values determined by the pSOL Model 3 (pION) acid-base titrator [A. Avdeef, C. M. Berger, C. Brownell, Pharm . Res. 2000, 17, 85-89].

[11] = solubility-pH by cosolvent method (50% v/v 1-propanol), 96-well UV; format: physicochemical; conditions: universal buffer solution, aqueous buffer, kinetic from dmso stock, 0.26% v/v DMSO, read-out: So^APP (apparent intrinsic solubility)
Method: The “sample” track on the left side of FIG. 4a depicts a series of steps leading up to the taking of the sample spectrum in a water-cosolvent solution. A known quantity of sample (37) is added in a known volume of the universal buffer solution of known pH (38), the amount of said sample being sufficient to cause precipitation to occur in the formed saturated solution (39). After waiting a period of time to allow the saturated solution to reach a desired steady state, the solution is filtered (40) to remove the solid, and obtain a clear solution (41).
A volume Y of a water-miscible cosolvent 42 is added to a volume Z of solution 41 to produce a new solution 43, in which the compound is diluted by Z/(Y+Z), from its concentration in solution 41. The spectrum of solution 43 is then immediately taken by the UV spectrophotometer (44), to minimize evaporation of the water-cosolvent solution. The mathematical treatment of the spectral data yields the area-under-the-curve of the filtered cosolvent sample solution (43), AUCS^COS. […]
18. As soon as the solutions are mixed in step 17, the robot transfers 5 μL from the diluted sample stock solution (using the 20 μL tips) to the blank solutions whose spectra had just been read in step 16: 14→17 (Sd→U). […]
The solubility is calculated according to equation (8). The results for phenazopyridine stated in Table 2 were determined by the cosolvent method.

[12] = literature (Roseman, Yalkowsky 1973); cited from earlier work
[13] = universal buffer solution, 0.5% v/v DMSO, 4 h shaking, read-out: So^APP (apparent intrinsic solubility)
[14] = saturated pH-buffered aqueous solution (universal buffer), read-out: corrected So (intrinsic solubility corrected for drug-DMSO/drug-aggregate effects)
[15] = pKa (I = 0.012 M, 50 vol % CH3CN)
[16] = read-out: corrected So (intrinsic solubility corrected for drug-DMSO/drug-aggregate effects)

## O=C(O)c1ccc2ccccc2c1 [2-naphthoic acid]
[1]
  pKa: 4.16
[2]; [13]
  solubility at 4 h: 33.3 µg/mL (≈ 193 µM)
[3]; [14]
  solubility: 20.2 µg/mL
[4]
  pKa shift Δ (apparent pKa minus true pKa): > 0
[5]
  Shake-Flask So: 22.4^g μg/mL

## OB(O)O [Boric Acid, boric acid]
[6]; pH 3, pKa (I = 0.020M)
  pKa: 9.13

## O=C(O)CO [Glycolic Acid, glycolic acid]
[6]; [15]
  pKa: 4.56

## O=S(=O)(O)CCN1CCN(CCO)CC1 [HEPES, 4-(2-hydroxyethyl)-1-piperazineethanesulfonic acid]
[7]
  pKa (I = 0.020M): 7.48

## O=S(=O)(O)CCN1CCOCC1 [MES monohydrate, 4-morpholine-ethanesulfonic acid]
[6]; pH 3, pKa (I = 0.020M)
  pKa: 6.08
[6]; [15]
  pKa: 6.24

## NCCS(=O)(=O)O [Taurine, 2-aminoethanesulfonic acid]
[6]; [15]
  pKa: 8.95

## CN(C)CCC=C1c2ccccc2CCc2ccccc21 [amitriptyline]
[2]; [13]
  solubility at 4 h: 56.9 µg/mL (≈ 205 µM)
[3]; [14]
  solubility: 3 µg/mL
[4]
  pKa shift Δ: < 0
[8]
  pKa: 9.45^a
[9]
  pSOL So: 2.0^a μg/mL
[5]
  Shake-Flask So: 2.0^a μg/mL

## CN(C)CCCN1c2ccccc2Sc2ccc(Cl)cc21 [chlorpromazine]
[2]; [13]
  solubility at 4 h: 19.4 µg/mL (≈ 60.8 µM)
[3]; [16]
  solubility: 3.4 µg/mL
[3]
  log So (corrected): 0.528

## O=C(O)Cc1ccccc1Nc1c(Cl)cccc1Cl [diclofenac]
[2]; [13]
  solubility at 4 h: 22.6 µg/mL (≈ 76.3 µM)
[3]; [14]
  solubility: 3.8 µg/mL
[9]
  pSOL So: 0.8^b μg/mL
[5]
  Shake-Flask So: 0.6^b μg/mL

## NS(=O)(=O)c1cc(C(=O)O)c(NCc2ccco2)cc1Cl [furosemide]
[9]
  pSOL So: 5.9^b μg/mL
[5]
  Shake-Flask So: 12.0^b μg/mL

## COC1=CC(=O)C[C@@H](C)[C@]12Oc1c(Cl)c(OC)cc(OC)c1C2=O [griseofulvin]
[2]; [13]
  solubility at 4 h: 37.6 µg/mL (≈ 107 µM)
[3]; [14]
  solubility: 20.2 µg/mL
[8]
  pKa: non-
[5]
  Shake-Flask So: 9^d μg/mL

## COc1ccc2c(c1)c(CC(=O)O)c(C)n2C(=O)c1ccc(Cl)cc1 [indomethacin]
[2]; [13]
  solubility at 4 h: 7.2 µg/mL (≈ 20.1 µM)
[3]; [14]
  solubility: 4.1 µg/mL
[9]
  pSOL So: 2.0^a μg/mL
[5]
  Shake-Flask So: 2.0 µg/mL and 1 µg/mL

## Clc1ccc(COC(Cn2ccnc2)c2ccc(Cl)cc2Cl)c(Cl)c1 (stereo not drawn) [miconazole]
[1]
  pKa: 6.07
[2]; [13]
  solubility at 4 h: 11.1 µg/mL (≈ 26.7 µM)
[3]; [14]
  solubility: 1.6 µg/mL
[10]
  pSOL So: 0.7^f μg/mL
[4]
  pKa shift Δ (apparent pKa minus true pKa): < 0

## CNCCC=C1c2ccccc2CCc2ccccc21 [nortriptyline]
[2]; universal buffer solution, in 0.5% v/v DMSO, read-out: solubility
  solubility at 4 h: > 98 µg/mL

## Nc1ccc(/N=N/c2ccccc2)c(N)n1 [phenazopyridine]
[1]
  pKa: 5.15
[11]
  solubility at 4 h: 12.2 µg/mL (≈ 57.2 µM)
[3]; saturated pH-buffered aqueous solution (universal buffer), from So^APP in 0.26% v/v DMSO, cosolvent method, read-out: corrected So (intrinsic solubility corrected for drug-DMSO/drug-aggregate effects)
  solubility: 12.2 µg/mL
[10]
  pSOL So: 14.3^f μg/mL
[4]
  pKa shift Δ: ≥ 0
[4]; saturated solutions containing 0.26% v/v DMSO, read-out: apparent pKa (pKa^APP)
  pKa: 5.83

## CN1C(C(=O)Nc2ccccn2)=C(O)c2ccccc2S1(=O)=O [piroxicam]
[2]; [13]
  solubility at 4 h: 10.5 µg/mL (≈ 31.7 µM)
[3]; [16]
  solubility: 1.1 µg/mL
[3]
  log So (corrected): 0.041
[4]; 0.5% v/v DMSO, solid curve in FIG. 8, read-out: apparent pKa (pKa^APP)
  pKa: 6.05
[4]
  pKa shift Δ: 0.98
[5]; Jinno et al.
  pKa deduced from literature solubility data: 5.63
[5]
  Shake-Flask So: 9.1^i μg/mL and 8-16^j μg/mL

## CCCN(CCC)S(=O)(=O)c1ccc(C(=O)O)cc1 [probenecid]
[1]
  pKa: 3.01
[2]; [13]
  solubility at 4 h: 4.6 µg/mL (≈ 16.1 µM)
[3]; [14]
  solubility: 0.7 µg/mL
[10]
  pSOL So: 0.6^f μg/mL
[4]
  pKa shift Δ (apparent pKa minus true pKa): > 0

## CC(C)NCC(O)COc1cccc2ccccc12 (stereo not drawn) [propranolol]
[2]; aqueous buffer, in 0.5% v/v DMSO, read-out: solubility
  solubility at 4 h: ~100 µg/mL (≈ 386 µM)

## CC(C)(C)c1ccc(C(O)CCCN2CCC(C(O)(c3ccccc3)c3ccccc3)CC2)cc1 (stereo not drawn) [terfenadine]
[1]
  pKa: 9.53
[2]; [13]
  solubility at 4 h: 4.4 µg/mL (≈ 9.33 µM)
[3]; at high pH, read-out: solubility (lowest value)
  solubility: ~0.1 µg/mL
[3]; [14]
  solubility: 0.1 µg/mL
[10]
  pSOL So: 0.1^f μg/mL
[4]
  pKa shift Δ (apparent pKa minus true pKa): < 0

## prostaglandin F2α
[12]
  pKa shift Δ = pKa^APP − pKa: Δ < or = 0
